We go through two compounds from ChEMBL document CHEMBL1201862, “PubChem BioAssay data set” (2004).

Some test systems named below: A498; HCC 2998; HCT-116; HOP-92; IGROV-1; LOX IMVI; M14; MDA-MB-231; Malme-3M; NCI-H460; OVCAR-3; OVCAR-4; RXF 393; SF-539; SK-MEL-2; SR; T47D; U-251; UACC-257; UO-31.
What all share (experiment): DTP human tumour cell line panel, 48 h

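Protocol summary: plate cells (96-well), add compound at 5 concentrations, incubate 48 h, interpolate endpoints linearly. GI50 marks 50% less growth.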 The source made the active and inactive calls. Cut-off read from the data, not from the text of the source: active = GI50 up to about 1.1 µM and inactive = higher.

Regarding `C[n+]1cc2cc(O)c(O)cc2c2ccc3cc(O)c(O)cc3c21.c1ccncc1`, the GI50 in the assay on A498 is 2.51 µM (inactive); in the assay with HCC 2998 it was 3.92 µM (inactive); in the assay on HCT-116, 1.4 µM (inactive); in the assay on HOP-92, 2.31 µM (inactive); with IGROV-1, 2.02 µM (inactive); in the assay on LOX IMVI it was 2.61 µM (inactive). Besides, the GI50 is 2.18 µM (inactive) in the assay on M14; 2.79 µM (inactive) with MDA-MB-231; 2.59 µM (inactive) in the assay on Malme-3M; 2.86 µM (inactive) in the assay with NCI-H460; 2.37 µM (inactive) with OVCAR-3; 2.88 µM (inactive) in the assay with OVCAR-4. In addition, the GI50 in the assay with RXF 393 is 2.07 µM (inactive); in the assay on SF-539, 2.62 µM (inactive); with SK-MEL-2 it was 3.05 µM (inactive); with SR, 2.09 µM (inactive); with T47D, 5.86 µM (inactive); with U-251, 1.6 µM (inactive). Also, the GI50 is 4.25 µM (inactive) in the assay with UACC-257 and 0.982 µM (active) in the assay on UO-31.
Turning to `CCOC(=O)C1=C(C)NC(=S)NC1c1cccc(O)c1` (stereo not given) [MONASTROL], the GI50 in the assay with A498 was 37.1 µM (inactive); with HCC 2998 it was 40 µM (inactive); in the assay with HCT-116, 34.9 µM (inactive); in the assay with HOP-92 it was 32.4 µM (inactive); in the assay on IGROV-1, 51.1 µM (inactive); in the assay with LOX IMVI, 72.8 µM (inactive). Also, the GI50 was 23.5 µM (inactive) with M14; 38.6 µM (inactive) in the assay on MDA-MB-231; 60.3 µM (inactive) with Malme-3M; 39.8 µM (inactive) in the assay on NCI-H460; 50.9 µM (inactive) with OVCAR-3; 66.1 µM (inactive) in the assay on OVCAR-4. Further, the GI50 with RXF 393 was 25.5 µM (inactive); with SF-539, 44.8 µM (inactive); in the assay on SK-MEL-2 it was 32.4 µM (inactive); in the assay on SR, 31.5 µM (inactive); in the assay with T47D it was 34.9 µM (inactive); with U-251, 33.9 µM (inactive). Moreover, the GI50 in the assay with UACC-257 is 62.7 µM (inactive); in the assay with UO-31 it was > 100 µM (inactive).

As a reminder, the GI50 is the concentration giving 50% growth inhibition.
